Experiments:
Format in all cases: biochemical
UTX (KDM6A) = molecular target: T1, UTX (KDM6A) (Homo sapiens, UniProt O15550); test: Histone lysine demethylase AlphaLISA assay, UTX; conditions: substrate BK27M3
T1 construct: 919-1401; host or cells: E. coli
Procedure, shortened: (§1)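 AlphaLISA read-out, IC50. Enzyme 10 min preinc → + cpd (3% DMSO soln) 10 min → + substrate, RT → acceptor beads 60 min dark RT → streptavidin donor beads, dark RT → read.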

FBXL10 (KDM2B) = molecular target: T2, FBXL10 (KDM2B) (Homo sapiens, UniProt Q8NHM5); test: Histone lysine demethylase AlphaLISA assay, FBXL10; conditions: substrate BH3K36M2
T2 construct: 1-650; purchased BPS, Bioscience, US; host or cells: Bac (baculovirus)
T2 sequence (Q8NHM5 1-650): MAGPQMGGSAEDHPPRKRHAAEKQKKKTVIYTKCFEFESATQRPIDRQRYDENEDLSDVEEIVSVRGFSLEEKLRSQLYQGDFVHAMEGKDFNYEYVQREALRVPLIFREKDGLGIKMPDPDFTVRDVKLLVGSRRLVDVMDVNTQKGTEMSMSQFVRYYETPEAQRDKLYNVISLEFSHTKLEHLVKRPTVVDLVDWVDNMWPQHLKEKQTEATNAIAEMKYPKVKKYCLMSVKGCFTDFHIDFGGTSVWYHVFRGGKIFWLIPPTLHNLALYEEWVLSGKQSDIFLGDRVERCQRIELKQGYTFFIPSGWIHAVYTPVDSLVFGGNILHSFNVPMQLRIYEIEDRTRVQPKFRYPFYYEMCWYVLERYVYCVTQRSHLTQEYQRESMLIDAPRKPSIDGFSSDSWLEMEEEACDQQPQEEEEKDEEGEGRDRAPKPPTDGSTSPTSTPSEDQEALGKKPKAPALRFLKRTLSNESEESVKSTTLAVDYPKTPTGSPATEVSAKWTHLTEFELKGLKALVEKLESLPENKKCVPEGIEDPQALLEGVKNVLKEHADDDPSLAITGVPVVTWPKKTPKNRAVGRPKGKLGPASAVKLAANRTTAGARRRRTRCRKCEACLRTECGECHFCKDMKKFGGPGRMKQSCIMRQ
Method: Example 2: Histone Lysine Demethylase AlphaLISA Assays for IC50 Value Determination
Assays are performed analogously to the protocol described by Perkin Elmer (Roy et al. Perkin Elmer Technical Note: AlphaLISA #12, April 2011).
Enzymes are dissolved in enzyme buffer and incubated for 10 min before 5 μL is added to 5 μL 3% DMSO solutions of compounds in enzyme buffer. Incubated for another 10 minutes, before 5 μL substrate solution is added and the reaction mixture is incubated at room temperature for the given period. 10 μL acceptor beads, suspended at given dilutions in Epigenetic Buffer (Perkin Elmer AL008) from stock, are added and the suspension is incubated 60 minutes in the dark at room temperature, before 10 μL suspension (at the given dilutions in Epigenetic Buffer) of streptavidin donor beads (Perkin Elmer 6760002) in Epigenetic Buffer is added. After incubation at room temperature in the dark the plates are read. Reaction conditions are seen in Table 2b.

PLU1 (KDM5B) = molecular target: T3, PLU1 (KDM5B) (Homo sapiens, UniProt Q9UGL1); test: Histone lysine demethylase AlphaLISA assay, PLU1; conditions: substrate H3K4M3B
T3 construct: 1-809; host or cells: E. coli
T3 sequence (Q9UGL1 1-809): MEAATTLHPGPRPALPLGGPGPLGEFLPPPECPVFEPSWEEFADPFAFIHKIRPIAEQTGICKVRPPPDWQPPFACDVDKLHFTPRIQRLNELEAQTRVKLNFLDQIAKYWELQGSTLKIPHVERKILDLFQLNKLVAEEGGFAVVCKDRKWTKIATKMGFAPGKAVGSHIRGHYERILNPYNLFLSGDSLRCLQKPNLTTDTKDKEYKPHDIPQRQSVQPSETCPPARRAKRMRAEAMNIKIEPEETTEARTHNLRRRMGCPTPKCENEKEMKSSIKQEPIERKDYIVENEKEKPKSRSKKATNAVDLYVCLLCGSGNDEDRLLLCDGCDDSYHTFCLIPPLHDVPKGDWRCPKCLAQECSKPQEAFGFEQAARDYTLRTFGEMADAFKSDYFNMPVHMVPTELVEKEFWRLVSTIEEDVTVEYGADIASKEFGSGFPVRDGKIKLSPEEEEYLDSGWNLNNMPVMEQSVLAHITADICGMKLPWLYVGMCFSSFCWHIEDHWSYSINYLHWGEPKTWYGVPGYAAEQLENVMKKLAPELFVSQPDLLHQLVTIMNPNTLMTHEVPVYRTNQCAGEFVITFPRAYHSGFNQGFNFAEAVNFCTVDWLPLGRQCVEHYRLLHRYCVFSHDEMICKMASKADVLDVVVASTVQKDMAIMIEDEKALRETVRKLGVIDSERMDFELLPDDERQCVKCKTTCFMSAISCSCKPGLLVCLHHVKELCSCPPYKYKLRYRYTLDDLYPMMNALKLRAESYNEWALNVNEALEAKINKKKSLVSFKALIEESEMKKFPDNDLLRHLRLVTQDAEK
Procedure, shortened: as §1

GASC1 (KDM4C, JMJD2C) = molecular target: T4, GASC1 (KDM4C, JMJD2C) (Homo sapiens, UniProt Q9H3R0); test: Histone lysine demethylase AlphaLISA assay, GASC1; conditions: substrate BK9M3
T4 construct: 1-349; host or cells: E. coli
T4 sequence (Q9H3R0 1-349): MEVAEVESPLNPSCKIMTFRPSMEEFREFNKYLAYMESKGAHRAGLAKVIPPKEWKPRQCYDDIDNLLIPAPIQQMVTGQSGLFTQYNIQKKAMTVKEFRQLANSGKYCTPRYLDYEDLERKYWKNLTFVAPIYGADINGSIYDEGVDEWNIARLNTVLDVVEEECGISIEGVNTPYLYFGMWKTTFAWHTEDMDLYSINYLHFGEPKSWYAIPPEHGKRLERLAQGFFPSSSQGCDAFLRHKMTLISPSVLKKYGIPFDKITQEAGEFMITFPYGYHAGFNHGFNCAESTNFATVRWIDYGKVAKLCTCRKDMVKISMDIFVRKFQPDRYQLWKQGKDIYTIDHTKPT
Procedure, shortened: as §1

T1 sequence (O15550 919-1401): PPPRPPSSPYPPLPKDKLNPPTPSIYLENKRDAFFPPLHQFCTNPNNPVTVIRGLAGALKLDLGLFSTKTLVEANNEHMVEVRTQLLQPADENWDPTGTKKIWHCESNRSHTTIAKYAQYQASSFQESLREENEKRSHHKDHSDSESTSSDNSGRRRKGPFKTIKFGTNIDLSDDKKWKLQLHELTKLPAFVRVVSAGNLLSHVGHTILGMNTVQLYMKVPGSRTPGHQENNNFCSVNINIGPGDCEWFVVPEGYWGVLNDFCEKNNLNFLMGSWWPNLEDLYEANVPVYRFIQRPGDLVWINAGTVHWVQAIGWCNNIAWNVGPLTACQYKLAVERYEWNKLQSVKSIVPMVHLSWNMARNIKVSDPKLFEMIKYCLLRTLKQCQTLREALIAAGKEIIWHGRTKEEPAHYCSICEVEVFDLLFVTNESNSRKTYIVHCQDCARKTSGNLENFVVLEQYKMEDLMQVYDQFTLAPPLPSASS

SMILES | IC50 (UTX (KDM6A)) | IC50 (FBXL10 (KDM2B)) | IC50 (PLU1 (KDM5B)) | IC50 (GASC1 (KDM4C, JMJD2C))
CCCCCCCCCCCCCCCC(=O)OCC(COC(=O)CCCCCCCCCCCCCCC)OC(=O)c1ccnc(CNCC(=O)N(CC)CCN(C)C)c1 [#68, 2-(2-{[({[2-(dimethylamino)ethyl](ethyl)carbamoyl}methyl)amino]methyl}pyridine-4-carbonyloxy)-3-(hexadecanoyloxy)propyl hexadecanoate] | < 0.1 µM | ≥ 1 µM | 0.1 to 1 µM | 0.1 to 1 µM
CCN(CCN(C)C)C(=O)CNCc1cc(C(=O)OC)ccn1 [#70, methyl 2-{[({[2-(dimethylamino)ethyl](ethyl)carbamoyl}methyl)amino]methyl}pyridine-4-carboxylate] | < 0.1 µM | ≥ 1 µM | < 0.1 µM | < 0.1 µM
CCN(CCN(C)C)C(=O)CNCc1cc(C(=O)N(C)S(C)(=O)=O)ccn1 [#71, 2-{[({[2-(dimethylamino)ethyl](ethyl)carbamoyl}methyl)amino]methyl}-N-methanesulfonyl-N-methylpyridine-4-carboxamide] | ≥ 1 µM | 0.1 to 1 µM | < 0.1 µM | < 0.1 µM
O=C(O)c1ccnc(CN(CC(=O)N2CCCCC2)Cc2ccccc2)c1 [#83, 2-({benzyl[2-oxo-2-(piperidin-1-yl)ethyl]amino}methyl)pyridine-4-carboxylic acid] |  | 0.1 to 1 µM | ≥ 1 µM | ≥ 1 µM
CC(C)CN(CC(=O)N1CCCCC1)Cc1cc(C(=O)O)ccn1 [#86, 2-{[(2-methylpropyl)[2-oxo-2-(piperidin-1-yl)ethyl]amino]methyl}pyridine-4-carboxylic acid] | < 0.1 µM | 0.1 to 1 µM | ≥ 1 µM | ≥ 1 µM
CCCN(CC(=O)N1CCCCC1)Cc1cc(C(=O)O)ccn1 [#87, 2-({[2-oxo-2-(piperidin-1-yl)ethyl](propyl)amino}methyl)pyridine-4-carboxylic acid] | < 0.1 µM | 0.1 to 1 µM | 0.1 to 1 µM | ≥ 1 µM
CC(C)N(CC(=O)N1CCCCC1)Cc1cc(C(=O)O)ccn1 [#88, 2-({[2-oxo-2-(piperidin-1-yl)ethyl](propan-2-yl)amino}methyl)pyridine-4-carboxylic acid] | < 0.1 µM | 0.1 to 1 µM | ≥ 1 µM | ≥ 1 µM
CCN(CCN(C)C)C(=O)CNCc1cc(C(=O)OCCF)ccn1 [#90, 2-fluoroethyl 2-{[({[2-(dimethylamino)ethyl](ethyl)carbamoyl}methyl)amino]methyl}pyridine-4-carboxylate] | < 0.1 µM | ≥ 1 µM | < 0.1 µM | 0.1 to 1 µM
CCN(CCN(C)C)C(=O)CNCc1cc(C(=O)OCC(F)F)ccn1 [#91, 2,2-difluoroethyl 2-{[({[2-(dimethylamino)ethyl](ethyl)carbamoyl}methyl)amino]methyl}pyridine-4-carboxylate] | < 0.1 µM | ≥ 1 µM | < 0.1 µM | < 0.1 µM
CC(C)C[C@H](NCc1cc(C(=O)O)ccn1)C(=O)NC(C)(C)C [#92, 2-({[(1S)-1-(tert-butylcarbamoyl)-3-methylbutyl]amino}methyl)pyridine-4-carboxylic acid] | 0.1 to 1 µM | 0.1 to 1 µM | ≥ 1 µM | ≥ 1 µM

Reference: patent US10221139B2, “Inhibitors of histone demethylases” (Gilead Sciences, Inc., priority 2012, dated 2019)
